Results: PubChem BioAssay (NCI)
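Exposure lasted 48 hours, with cells grown in 96-well plates and compounds tested at five concentrations. At the TGI there is no net growth.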

Columns and labels:
Test in all cases: NCI-60 cell line screen, 48 h
[1] = tested on: T-47D breast
[2] = tested on: NCI/ADR-RES ovarian
[3] = tested on: HCT-15 colon
[4] = tested on: ACHN renal
[5] = tested on: HL-60(TB) leukemia
[6] = tested on: SW-620 colon
[7] = tested on: M14 melanoma
[8] = tested on: NCI-H522 lung
[9] = tested on: RXF 393 renal
[10] = tested on: SK-MEL-5 melanoma
[11] = tested on: OVCAR-4 ovarian
[12] = tested on: KM12 colon
[13] = tested on: SK-OV-3 ovarian
[14] = tested on: SF-539 CNS
[15] = tested on: NCI-H226 lung
[16] = tested on: UACC-257 melanoma
[17] = tested on: HCC-2998 colon

SMILES	TGI [1]	TGI [2]	TGI [3]	TGI [4]	TGI [5]	TGI [6]	TGI [7]	TGI [8]	TGI [9]	TGI [10]	TGI [11]	TGI [12]	TGI [13]	TGI [14]	TGI [15]	TGI [16]	TGI [17]
CC(C)C[C@H](NC(=O)[C@H](Cc1ccc(F)cc1)NC(=O)c1ccccn1)B(O)O	< 0.01 µM	0.0212 µM	< 0.01 µM	0.0465 µM	> 100 µM	< 0.01 µM	< 0.0107 µM	< 0.01 µM	< 0.01 µM	< 0.01 µM	< 0.0326 µM	< 0.01 µM	1.07 µM	< 0.01 µM	< 0.01 µM	< 0.01 µM	< 0.01 µM
OC(c1ccc2c(c1)OCO2)c1ccc2c(c1)OCO2	> 100 µM	> 100 µM	> 100 µM	> 100 µM	> 100 µM	> 100 µM	> 100 µM	> 100 µM	–	> 100 µM	> 100 µM	> 100 µM	> 100 µM	> 100 µM	> 100 µM	> 100 µM	> 100 µM
COC(=O)C1Cc2ccc3c(c2C1=O)CCCC3 (stereo not drawn)	> 100 µM	> 100 µM	> 100 µM	> 100 µM	> 100 µM	> 100 µM	> 100 µM	> 100 µM	–	> 100 µM	> 100 µM	> 100 µM	> 100 µM	> 100 µM	> 100 µM	> 100 µM	> 100 µM
NC(=O)SCCC(N)C(=O)O (stereo not drawn)	> 100 µM	> 100 µM	> 100 µM	> 100 µM	> 100 µM	> 100 µM	> 100 µM	> 100 µM	> 100 µM	> 100 µM	> 100 µM	> 100 µM	> 100 µM	> 100 µM	> 100 µM	> 100 µM	> 100 µM
O=C1c2ccccc2C2C1C(c1ccccc1)C1(Cc3ccccc3C1=O)C2c1ccccc1 (stereo not drawn)	> 100 µM	> 100 µM	> 100 µM	> 100 µM	35.6 µM	> 100 µM	> 100 µM	> 100 µM	> 100 µM	> 100 µM	> 100 µM	> 100 µM	> 100 µM	> 100 µM	> 100 µM	> 100 µM	> 100 µM
C#Cc1cc(Br)c(OC(=O)C(C)(C)C)c(-c2cc(C#C)cc(Br)c2OC(=O)C(C)(C)C)c1	> 100 µM	> 100 µM	> 100 µM	73.8 µM	30.3 µM	> 100 µM	> 100 µM	> 100 µM	46.7 µM	> 100 µM	> 100 µM	> 100 µM	> 100 µM	> 100 µM	–	> 100 µM	90.7 µM
CC(=O)O[C@@]12CO[C@@H]1C[C@@H](O)[C@@]1(C)C(=O)[C@H](O)C3=C(C)[C@@H](OC(=O)[C@H](O)[C@@H](NC(=O)c4ccccc4)c4ccccc4)C[C@@](O)([C@@H](OC(=O)c4ccccc4)C12)C3(C)C (stereo partly drawn)	> 100 µM	74.4 µM	> 100 µM	57 µM	> 39.9 µM	> 100 µM	> 100 µM	–	35.4 µM	–	> 100 µM	–	> 100 µM	0.0579 µM	81.9 µM	> 100 µM	0.0705 µM
